Results as given in US11479802B2, “Assays for screening activity of modulators of members of the hydroxy steroid (17-beta) dehydrogenase (HSD17B) family” (Regeneron Pharmaceuticals, Inc., priority 2017, dated 2022).

Target: T1, human HSD17B13 (Homo sapiens, UniProt Q7Z5P4)
T1 sequence (Q7Z5P4 20-300): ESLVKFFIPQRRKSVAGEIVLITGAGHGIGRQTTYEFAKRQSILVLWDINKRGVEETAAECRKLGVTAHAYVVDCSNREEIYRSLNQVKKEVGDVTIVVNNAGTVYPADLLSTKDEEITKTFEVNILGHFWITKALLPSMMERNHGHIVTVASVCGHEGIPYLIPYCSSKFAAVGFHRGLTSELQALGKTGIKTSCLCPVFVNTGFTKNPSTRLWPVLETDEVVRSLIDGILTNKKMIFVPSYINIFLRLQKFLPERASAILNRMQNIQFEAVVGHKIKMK
Assay: Substrate screening of steroid and bioactive lipid libraries against purified recombinant HSD17B13 (NADH-linked luciferase assay)
Format: biochemical
Settings: Bioactive Lipid Library; for HSD17B13 Enzymatic Activity Relative Light Units: 5 μM bioactive lipid (Estradiol Control 50 μM), 500 μM NAD+, 100 ng enzyme, 3 hours at 23° C.; for HSD17B13 Enzymatic Activity Percent Estradiol Control: 5 μM bioactive lipid, normalized to 50 μM estradiol after subtraction of 5% DMSO
Experimental: To understand the functional consequences of premature truncation of the HSD17B13 protein due to rs72613567:TA (the associated variant, rs72613567, is an insertion of an adenine adjacent to the donor splice site of exon six (TA allele)), the enzymatic activity of isoforms A and D was evaluated in vitro using recombinant protein and nicotinamide […] dinucleotide as cofactor. Reactions were performed in a final volume of 40 μl of assay buffer (0.2 M Tris-HCl, pH 7.5) which contained 500 μM NAD^+, 5 μM bioactive lipid or 50 μM steroid (all in a final concentration of 5% DMSO), and 100 ng of recombinant human HSD17B13. Reactions were incubated for 3 hours, at 23° C., after which an equal volume detection reagent was added. Following a 1 hour incubation at 23° C., the relative light units (RLUs) were measured on an Envision Plate Reader (Perkin Elmer). Raw RLU values were normalized as percent of control (50 μM estradiol) following subtraction of negative control (5% DMSO) using the following formula: Percent of control (POC)=100×(Sample (RLU)−Negative CTRLaverage)/(Positive CTRLaverage−Negative CTRLaverage).

| Compound | HSD17B13 Enzymatic Activity Relative Light Units [RLU] | HSD17B13 Enzymatic Activity Percent Estradiol Control [%] |
| --- | --- | --- |
| 15-deoxy-Δ12,14-Prostaglandin J2-biotin | 252400 | −2.43 |
| CC/C=C\C/C=C\C/C=C\C/C=C\C/C=C\CC1OC1CCC(=O)OC (racemic) [(±)4(5)-EpDPA methyl ester] | 338320 | 1.00 |
| CCCCC/C=C\C/C=C\C/C=C\CC(O)C1CCCC(=O)O1 (racemic) [(±)5(6)-DiHET lactone] | 411120 | 6.50 |
| CCCCCC=CCC=CCC=CCC(O)C(O)CCCC(=O)O (racemic) [(±)5(6)-DiHET] | 353120 | 4.93 |
| CCCCC/C=C\C/C=C\C/C=C\C[C@H]1O[C@H]1CCCC(=O)NCCO (racemic) [(±)5(6)-EET Ethanolamide] | 450160 | 9.45 |
| CCCCC/C=C\C/C=C\C/C=C\CC1OC1CCCC(=O)O (racemic) [(±)5(6)-EET] | 360960 | 5.51 |
| CC/C=C\C/C=C\C/C=C\C/C=C\C=C\C(O)CCCC(=O)O (racemic) [(±)5-HEPE] | 344480 | 4.85 |
| CCCCC/C=C\C/C=C\C/C=C\C=C\C1CCCC(=O)O1 (racemic) [(±)5-HETE lactone] | 348120 | 4.56 |
| CCCCC/C=C\C/C=C\C/C=C\C=C\[C@@H](O)CCCC(=O)OC (racemic) [(±)5-HETE methyl ester] | 337600 | 3.78 |
| CCCCC/C=C\C/C=C\C/C=C\C=C\[C@@H](O)CCCC(=O)O (racemic) [(±)5-HETE] | 431960 | 10.79 |
| CC/C=C\C/C=C\C/C=C\C/C=C\C=C\C(O)C/C=C\CCC(=O)O (racemic) [(±)7-HDHA] | 361320 | 5.54 |
| CCCCC/C=C\C/C=C\CC(O)C(O)C/C=C\CCCC(=O)O (racemic) [(±)8(9)-DiHET] | 472120 | 11.11 |
| CC/C=C\C/C=C\C/C=C\C/C=C\CC(O)/C=C/C=C\CCC(=O)O (racemic) [(±)8-HDHA] | 773120 | 36.16 |
| CC/C=C\C/C=C\C/C=C\C=C\C(O)C/C=C\CCCC(=O)O (racemic) [(±)8-HEPE] | 472800 | 13.83 |
| CCCCC/C=C\C/C=C\C=C\C(O)C/C=C\CCCC(=O)O (racemic) [(±)8-HETE] | 592720 | 22.75 |
| CCCCC/C=C\CC(O)C(O)CCCCCCCC(=O)O (racemic) [(±)9(10)-DiHOME] | 391000 | 4.98 |
| CCCCC/C=C\CC1OC1CCCCCCCC(=O)O (racemic) [(±)9(10)-EpOME] | 354560 | 2.23 |
| CC/C=C\C/C=C\C/C=C\CC(O)/C=C/C=C\CCCC(=O)O (racemic) [(±)9-HEPE] | 699960 | 30.72 |
| CCCCC/C=C\C/C=C\CC(O)/C=C/C=C\CCCC(=O)O (racemic) [(±)9-HETE] | 1110120 | 61.22 |

| Compound | HSD17B13 Enzymatic Activity Relative Light Units [RLU] | HSD17B13 Enzymatic Activity Percent Estradiol Control [%] |
| --- | --- | --- |
| CCCCC/C=C\C=C\C(O)CCCCCCCC(=O)O (racemic) [(±)9-HODE] | 695320 | 30.38 |
| CC/C=C\C/C=C\C/C=C\C=C\C(O)C/C=C\C/C=C\CCC(=O)O (racemic) [(±)10-HDHA] | 801680 | 38.28 |
| CCCCC/C=C\CC(O)C(O)C/C=C\C/C=C\CCCC(=O)O (racemic) [(±)11(12)-DiHET] | 599000 | 20.69 |
| CC/C=C\C/C=C\C/C=C\CC(O)/C=C/C=C\C/C=C\CCC(=O)O (racemic) [(±)11-HDHA] | 1259280 | 72.31 |
| CCCCC/C=C\C=C\[C@H](O)CCCCCCCCCC(=O)O (racemic) [(±)11-HEDE] | 1334080 | 77.87 |
| CC/C=C\C/C=C\C=C\C(O)C/C=C\C/C=C\CCCC(=O)O (racemic) [(±)11-HEPE] | 791920 | 37.56 |
| CCCCC/C=C\C=C\C(O)C/C=C\C/C=C\CCCC(=O)O (racemic) [(±)11-HETE] | 767720 | 35.76 |
| CC/C=C\C/C=C\CC(O)/C=C/C=C\C/C=C\CCCC(=O)O (racemic) [(±)12-HEPE] | 761600 | 35.30 |
| CCCCC/C=C\C[C@H](O)/C=C/C=C\C/C=C\CCCC(=O)O (racemic) [(±)12-HETE] | 1324640 | 77.17 |
| CCCCC/C=C\CC(/C=C/C=C\C/C=C\CCCC(=O)O)OO (racemic) [(±)12-HpETE] | 165800 | −9.27 |
| CC/C=C\C/C=C\C=C\C(O)C/C=C\C/C=C\C/C=C\CCC(=O)O (racemic) [(±)13-HDHA] | 1154720 | 64.54 |
| CCCCCC(O)/C=C/C=C\CCCCCCCC(=O)O (racemic) [(±)13-HODE] | 954080 | 49.62 |
| CC/C=C\CC(O)C(O)C/C=C\C/C=C\C/C=C\CCCC(=O)O (racemic) [(±)14(15)-DiHETE] | 356480 | 2.37 |
| CCCCCC(O)C(O)C/C=C\C/C=C\C/C=C\CCCC(=O)O (racemic) [(±)14(15)-DiHET] | 403560 | 5.93 |
| CCCCCC1OC1C/C=C\C/C=C\C/C=C\CCCC(=O)O (racemic) [(±)14(15)-EET] | 305720 | 1.41 |
| CC/C=C\CC1OC1C/C=C\C/C=C\C/C=C\CCCC(=O)O (racemic) [(±)14(15)-EpETE] | 306600 | 1.86 |
| CCCCCC(O)/C=C/C=C\CCCCCCCCCC(=O)O (racemic) [(±)15-HEDE] | 1430720 | 85.06 |
| CC/C=C\CC(O)/C=C/C=C\C/C=C\C/C=C\CCCC(=O)O (racemic) [(±)15-HEPE] | 578600 | 21.70 |
